Values of other authors as cited in patent US20100228037A1, “Process for Preparing Allylmercaptocaptopril (Cpssa) and Related Asymmetrical Disulfides” (Yeda Research And Development Co. Ltd. at the Weizmann …, priority 2006, published 2010).
Where two headings read alike, the source gives them in different places.

How the values were obtained:
[1] = blood or plasma of mammals
[2] = in vitro, human blood
[3] = in vivo, rats
[4] = rats, immediately after administration

Row | stability in blood or plasma [1] | SMILES | antihypertensive properties compared with unmodified captopril (rats; rat, in vivo) | blood pressure (rats; [4]) | serum level of insulin (rats; [4]) | serum level of triglycerides (rats; [4]) | disintegration in blood after administration [2] | disintegration in blood after administration [3]
1 | stable in blood or plasma of mammals | C=CCSSC[C@H](C)C(=O)N1CCC[C@H]1C(=O)O [CPSSA, allylmercaptocaptopril] | improved antihypertensive properties | significantly decreased blood pressure | to near normal levels | to near normal levels | – | –
2 | – | C=CCS[S+]([O-])CC=C (stereo not shown) [allicin] | – | – | – | – | disintegrates in the blood a few minutes post its administration | disintegrates in the blood a few minutes post its administration
